The source of these data is US8586755B2, “Substituted nicotinamides as KCNQ2/3 modulators” (Grünenthal GmbH, priority 2009, dated 2013).

The target in the test is T1, KCNQ2/3 channels (Homo sapiens, UniProt O43525+O43526).
T1 construct: expressed in transfected cells
As to the kind of experiment: Fluorescence assay using a voltage sensitive dye (fluorimetry). Type of test: cell-based. As to conditions: CHO-K1 cells expressing KCNQ2/3 channels; for EC50: agonistic activity; for Emax / Fluorimetry % efficacy (retigabine 50 μM = 100%): retigabine 50 μM = 100%; for Emax: read-out: Fluorimetry % efficacy (retigabine 50 μM = 100%). How it is done: Pharmacological Experiments Fluorescence Assay Using a Voltage Sensitive Dye
Human CHO-K1 cells expressing KCNQ2/3 channels are cultivated adherently at 37° C., 5% CO2 and 95% humidity in cell culture bottles (e.g. 80 cm^2 TC flasks, Nunc) with DMEM-high glucose (Sigma Aldrich, D7777) including 10% FCS (PAN Biotech, e.g. 3302-P270521) or alternatively MEM Alpha Medium (1×, liquid, Invitrogen, #22571), 10% fetal calf serum (FCS) (Invitrogen, #10270-106, heat-inactivated) and the necessary selection antibiotics.
Before being sown out for the measurements, the cells are washed with a 1×DPBS buffer without Ca^2+/Mg^2+ (e.g. Invitrogen, #14190-094) and detached from the bottom of the culture vessel by means of Accutase (PAA Laboratories, #L11-007) (incubation with Accutase for 15 min at 37° C.). The cell count then present is determined using a CASY™ cell counter (TCC model, Schärfe System) in order subsequently to apply, depending on the density optimization for the individual cell line, 20,000-30,000 cells/well/100 μl of the described nutrient medium to 96-well measuring plates of the Corning™ CellBIND™ type (Flat Clear Bottom Black Polystyrene Microplates, #3340). Incubation is then carried out for one hour at room temperature, without gassing or adjusting the humidity, followed by incubation for 24 hours at 37° C., 5% CO2 and 95% humidity.
The voltage-sensitive fluorescent dye from the Membrane Potential Assay Kit (Red™ Bulk format part R8123 for FLIPR, MDS Analytical Technologies™) is prepared by dissolving the contents of a vessel Membrane Potential Assay Kit Red Component A in 200 ml of extracellular buffer (ES buffer, 120 mM NaCl, 1 mM KCl, 10 mM HEPES, 2 mM CaCl2, 2 mM MgCl2, 10 mM glucose; pH 7.4). After removal of the nutrient medium, the cells are washed with 200 μl of ES buffer, then covered with a layer of 100 μl of the dye solution prepared above and incubated for 45 min at room temperature with the exclusion of light.
The fluorescence measurements are carried out with a BMG Labtech FLUOstar™ BMG Labtech NOVOstar™ or BMG Labtech POLARstar™ instrument (525 nm excitation, 560 nm emission, Bottom Read mode). After incubation of the dye, 50 μl of the test substances in the desired concentrations, or 50 μl of ES buffer for control purposes, are introduced into separate cavities of the measuring plate and incubated for 30 min at room temperature while being shielded from light. The fluorescence intensity of the dye is then measured for 5 min and the fluorescence value F1 of each well is thus determined at a given, constant time. 15 μl of a […] KCl solution ([…]) are then added to each well. The change in fluorescence is subsequently measured until all the relevant measured values have been obtained (mainly 5-30 min). At a given time after KCl application, a fluorescence value F2 is determined, in this case at the time of the fluorescence peak.
For calculation, the fluorescence intensity F2 is compared with the fluorescence intensity F1, and the agonistic activity of the target compound on the potassium channel is determined therefrom. F2 and F1 are calculated as follows: […]
In order to determine whether a substance has agonistic activity,
A substance has an agonistic activity on the potassium channel when
[formula] it is possible to conclude that a target compound has agonistic activity if an increase in
[formula] is to be observed as the dosage of the target compound increases.
Calculations of EC50 values are carried out with the aid of ‘Prism v4.0’ software (GraphPad Software™).

Regarding `O=C(NCC1CC2CCC1C2)c1cccnc1SCCCc1ccc(C(F)(F)F)cc1` (centres unmarked) [compound 34, N-(5-Bicyclo[2.2.1]heptanyl-methyl)-2-[3-[4-(trifluoromethyl)-phenyl]-propylsulfanyl]-pyridine-3-carboxylic acid amide], the EC50 is 0.463 µM and the Emax worked out at 204%.
Take `O=C(NCC1CC2CCC1C2)c1cccnc1SCCCc1ccc(Cl)cc1` (centres unmarked) [compound 35, N-(5-Bicyclo[2.2.1]heptanyl-methyl)-2-[3-(4-chlorophenyl)-propylsulfanyl]-pyridine-3-carboxylic acid amide]: the EC50 was determined as 0.242 µM and the Emax came to 221%.
In the case of `O=C(NCc1cc(F)cc(F)c1)c1cccnc1SCCCc1ccc(F)cc1` [compound 36, N-[(3,5-Difluoro-phenyl)-methyl]-2-[3-(4-fluorophenyl)-propylsulfanyl]-pyridine-3-carboxylic acid amide], a half-maximal effect (EC50) was put at 0.045 µM and the Emax is 78%.
The matching figures for `O=C(NCc1ccc(Cl)s1)c1cccnc1SCCCc1ccc(F)cc1` [compound 37, N-[(5-Chloro-thiophen-2-yl)-methyl]-2-[3-(4-fluorophenyl)-propylsulfanyl]-pyridine-3-carboxylic acid amide]: 0.074 µM and 89%.
The matching figures for `CC1(C)CC1CNC(=O)c1cccnc1SCCCc1ccc(F)cc1` (centres unmarked) [compound 38, N-[(2,2-Dimethyl-cyclopropyl)-methyl]-2-[3-(4-fluorophenyl)-propylsulfanyl]-pyridine-3-carboxylic acid amide]: 0.144 µM and 176%.
The matching figures for `O=C(NCC1CC2CCC1C2)c1cccnc1SCCCc1cccc(F)c1` (centres unmarked) [compound 39, N-(5-Bicyclo[2.2.1]heptanyl-methyl)-2-[3-(3-fluorophenyl)-propylsulfanyl]-pyridine-3-carboxylic acid amide]: 0.25 µM and 250%.
Turning to `O=C(NCC1CCCCCC1)c1cccnc1SCCCc1ccc(F)cc1` [compound 41, N-(Cycloheptyl-methyl)-2-[3-(4-fluorophenyl)-propylsulfanyl]-pyridine-3-carboxylic acid amide], the EC50 was found to be 0.157 µM and the Emax was determined as 159%.
As for `CC(C)(C)CCNC(=O)c1cccnc1SCCCc1ccc(F)cc1` [compound 42], a half-maximal effect (EC50) was put at 0.128 µM and the “Fluorimetry % efficacy (retigabine 50 μM = 100%)” value (from here on “Fluorimetry % efficacy”) is recorded as 164%.
As to `O=C(CCSc1ncccc1C(=O)NCC1CC2CCC1C2)c1ccc(F)cc1` (centres unmarked) [compound 43, N-(5-Bicyclo[2.2.1]heptanyl-methyl)-2-[[3-(4-fluorophenyl)-3-oxo-propyl]sulfanyl]-pyridine-3-carboxylic acid amide], the EC50 stood at 0.896 µM and the Emax worked out at 46%.
The matching figures for `O=C(CCSc1ncccc1C(=O)NCC1CC2CCC1C2)c1ccccc1` (centres unmarked) [compound 44, N-(5-Bicyclo[2.2.1]heptanyl-methyl)-2-[(3-oxo-3-phenyl-propyl)sulfanyl]-pyridine-3-carboxylic acid amide]: 2.96 µM and 167%.
The matching figures for `CCCCCCSc1ncccc1C(=O)NCC1CC2CCC1C2` (centres unmarked) [compound 45, N-(5-Bicyclo[2.2.1]heptanyl-methyl)-2-(hexylsulfanyl)-pyridine-3-carboxylic acid amide]: 1.61 µM and 224%.
In the case of `O=C(NCC1CC2CCC1C2)c1cccnc1SCCOc1ccccc1` (centres unmarked) [compound 46, N-(5-Bicyclo[2.2.1]heptanyl-methyl)-2-(2-phenoxy-ethylsulfanyl)-pyridine-3-carboxylic acid amide], the midpoint of the response, the EC50, lay at 0.672 µM and the Emax was 238%.
The matching figures for `O=C(NCC1CC2CCC1C2)c1cccnc1SCCOc1cccc(C(F)(F)F)c1` (centres unmarked) [compound 47, N-(5-Bicyclo[2.2.1]heptanyl-methyl)-2-[2-[3-(trifluoromethyl)-phenoxy]-ethylsulfanyl]-pyridine-3-carboxylic acid amide]: 0.218 µM and 183%.
The matching figures for `O=C(NCCC(F)(F)F)c1cccnc1SCCCc1ccc(F)cc1` [compound 48, 2-[3-(4-Fluorophenyl)-propylsulfanyl]-N-(3,3,3-trifluoro-propyl)-pyridine-3-carboxylic acid amide]: 0.148 µM and 183%.
As for `O=C(NCC1CC2CCC1C2)c1cccnc1SCCOc1ccc(F)cc1` (centres unmarked) [compound 49, N-(5-Bicyclo[2.2.1]heptanyl-methyl)-2-[2-(4-fluoro-phenoxy)-ethylsulfanyl]-pyridine-3-carboxylic acid amide], the EC50 came to 0.231 µM and the Emax stood at 174%.
Turning to `O=C(NCC1CC2CCC1C2)c1cccnc1SCCC(O)c1ccc(F)cc1` (centres unmarked) [compound 50], the 50% effective concentration (EC50) stood at 1.49 µM and the “Fluorimetry % efficacy” value amounted to 169%.
In the case of `O=C(NCC1CC2CCC1C2)c1cccnc1SCCCc1cccc2ccccc12` (centres unmarked) [compound 52, N-(5-Bicyclo[2.2.1]heptanyl-methyl)-2-(3-naphthalen-1-yl-propylsulfanyl)-pyridine-3-carboxylic acid amide], the EC50 is 0.496 µM and the Emax is 190%.
The matching figures for `O=C(NCC1CCCCCCC1)c1cccnc1SCCCc1ccc(F)cc1` [compound 55, N-(Cyclooctyl-methyl)-2-[3-(4-fluorophenyl)-propylsulfanyl]-pyridine-3-carboxylic acid amide]: 0.227 µM and 149%.
The matching figures for `COc1ccc(CCCSc2ncccc2C(=O)NCC2CC3CCC2C3)cc1` (centres unmarked) [compound 56, N-(5-Bicyclo[2.2.1]heptanyl-methyl)-2-[3-(4-methoxyphenyl)-propylsulfanyl]-pyridine-3-carboxylic acid amide]: 1.01 µM and 251%.
The matching figures for `COc1ccc(CNC(=O)c2cccnc2SCCCc2ccc(F)cc2)cc1` [compound 57, 2-[3-(4-Fluorophenyl)-propylsulfanyl]-N-[(4-methoxyphenyl)-methyl]-pyridine-3-carboxylic acid amide]: 0.252 µM and 83%.
Turning to `O=C(NCC1CC2CCC1C2)c1cccnc1SCCCc1ccc(O)cc1` (centres unmarked) [compound 58], the half-maximal effective concentration (EC50) stood at 3.88 µM and the “Fluorimetry % efficacy” value came to 174%.
Turning to `O=C(NCc1cccc(C(F)(F)F)c1)c1cccnc1SCCCc1ccc(F)cc1` [compound 59, 2-[3-(4-Fluorophenyl)-propylsulfanyl]-N-[[3-(trifluoromethyl)phenyl]-methyl]-pyridine-3-carboxylic acid amide], the EC50 was 0.21 µM and the Emax worked out at 83%.
The matching figures for `O=C(NCC1CC2CCC1C2)c1cccnc1SCCCc1ccc(F)c(F)c1` (centres unmarked) [compound 60, N-(5-Bicyclo[2.2.1]heptanyl-methyl)-2-[3-(3,4-difluoro-phenyl)-propylsulfanyl]-pyridine-3-carboxylic acid amide]: 0.263 µM and 236%.
The matching figures for `O=C(NCC1CC2CCC1C2)c1cccnc1SCCCc1cc(F)cc(F)c1` (centres unmarked) [compound 61, N-(5-Bicyclo[2.2.1]heptanyl-methyl)-2-[3-(3,5-difluoro-phenyl)-propylsulfanyl]-pyridine-3-carboxylic acid amide]: 0.221 µM and 283%.
Turning to `O=C(NCC1CC2CCC1C2)c1cccnc1SCCCc1ccc(F)cc1F` (centres unmarked) [compound 62, N-(5-Bicyclo[2.2.1]heptanyl-methyl)-2-[3-(2,4-difluoro-phenyl)-propylsulfanyl]-pyridine-3-carboxylic acid amide], the EC50 is 0.182 µM and the Emax amounted to 274%.
